Results taken from the NIST ThermoML archive (doi:10.1016/j.jct.2008.05.014).

Experiment: xn = mol fraction of the nth substance listed
Conditions: Liquid; for speed of sound: Pulse-echo method

CCCCCCCCCCCC [dodecane] + CCCCCCC
Conditions | mass density [kg/m3] | speed of sound [m/s]
303.17 K, 101 kPa, x2 = 0.2001 | – | 1238.5
308.11 K, 30390 kPa, x2 = 0.9391 | – | 1298.5
308.11 K, 30390 kPa, x2 = 0.97 | – | 1294.9
308.11 K, 45590 kPa, x2 = 0.9391 | – | 1376.1
308.11 K, 45590 kPa, x2 = 0.97 | – | 1373
308.11 K, 60790 kPa, x2 = 0.9391 | – | 1445.9
308.11 K, 60790 kPa, x2 = 0.97 | – | 1443.2
308.11 K, 75990 kPa, x2 = 0.9391 | – | 1509.5
308.11 K, 75990 kPa, x2 = 0.97 | – | 1507.2
308.11 K, 91180 kPa, x2 = 0.9391 | – | 1568
308.11 K, 101320 kPa, x2 = 0.4999 | – | 1649.5
308.11 K, 101320 kPa, x2 = 0.9391 | – | 1605.3
308.11 K, 101320 kPa, x2 = 0.97 | – | 1603.3
308.12 K, 101 kPa, x2 = 0 | – | 1240.2
308.12 K, 101 kPa, x2 = 0.6 | – | 1164.6
308.12 K, 101 kPa, x2 = 0.8995 | – | 1109.6
308.12 K, 15200 kPa, x2 = 0.9391 | – | 1209.5
308.12 K, 15200 kPa, x2 = 0.97 | – | 1205.4
308.12 K, 45590 kPa, x2 = 0.1014 | – | 1468.2
308.12 K, 45590 kPa, x2 = 0.4999 | – | 1432.7
308.12 K, 60790 kPa, x2 = 0.1014 | – | 1531
308.12 K, 75990 kPa, x2 = 0.1014 | – | 1589.4
308.12 K, 91180 kPa, x2 = 0.1014 | – | 1643.8
308.12 K, 91180 kPa, x2 = 0.4999 | – | 1614.6
308.12 K, 91180 kPa, x2 = 0.97 | – | 1565.8
308.12 K, 101320 kPa, x2 = 0.1014 | – | 1677.8
308.13 K, 101 kPa, x2 = 0.3002 | – | 1207.1
308.13 K, 101 kPa, x2 = 0.7002 | – | 1147.7
308.13 K, 101 kPa, x2 = 0.8 | – | 1129.6
308.13 K, 15200 kPa, x2 = 0.1014 | – | 1321.5
308.13 K, 15200 kPa, x2 = 0.4999 | – | 1278.8
308.13 K, 30390 kPa, x2 = 0.1014 | – | 1398.8
308.13 K, 30390 kPa, x2 = 0.3007 | – | 1379.7
308.13 K, 30390 kPa, x2 = 0.4999 | – | 1360.2
308.13 K, 30390 kPa, x2 = 0.5003 | – | 1360.2
308.13 K, 30390 kPa, x2 = 0.7007 | – | 1334.7
308.13 K, 45590 kPa, x2 = 0.3007 | – | 1450.6
308.13 K, 45590 kPa, x2 = 0.7007 | – | 1409.4
308.13 K, 60790 kPa, x2 = 0.4999 | – | 1498.1
308.13 K, 60790 kPa, x2 = 0.5003 | – | 1498.2
308.13 K, 60790 kPa, x2 = 0.7007 | – | 1476.6
308.13 K, 75990 kPa, x2 = 0 | – | 1596.8
308.13 K, 75990 kPa, x2 = 0.4999 | – | 1558.1
308.13 K, 75990 kPa, x2 = 0.5003 | – | 1558.2
308.13 K, 75990 kPa, x2 = 0.7007 | – | 1537.9
308.13 K, 91180 kPa, x2 = 0 | – | 1650.9
308.13 K, 91180 kPa, x2 = 0.3007 | – | 1629.5
308.13 K, 91180 kPa, x2 = 0.5003 | – | 1614.7
308.13 K, 91180 kPa, x2 = 0.7007 | – | 1595.3
308.13 K, 101320 kPa, x2 = 0.3007 | – | 1664.1
308.13 K, 101320 kPa, x2 = 0.5003 | – | 1649.8
308.13 K, 101320 kPa, x2 = 0.7007 | – | 1631.3
308.14 K, 101 kPa, x2 = 0.3996 | – | 1194.1
308.14 K, 15200 kPa, x2 = 0 | – | 1331
308.14 K, 15200 kPa, x2 = 0.3007 | – | 1300.4
308.14 K, 15200 kPa, x2 = 0.5003 | – | 1278.7
308.14 K, 15200 kPa, x2 = 0.7007 | – | 1250.1
308.14 K, 30390 kPa, x2 = 0 | – | 1407.6
308.14 K, 45590 kPa, x2 = 0 | – | 1476.3
308.14 K, 45590 kPa, x2 = 0.5003 | – | 1432.6
308.14 K, 60790 kPa, x2 = 0 | – | 1538.6
308.14 K, 60790 kPa, x2 = 0.3007 | – | 1515
308.14 K, 75990 kPa, x2 = 0.3007 | – | 1574.3
308.15 K, 101 kPa, x2 = 0 | 738.031 | –
308.15 K, 101 kPa, x2 = 0.0991 | 733.816 | –
308.15 K, 101 kPa, x2 = 0.1007 | – | 1230
308.15 K, 101 kPa, x2 = 0.2001 | – | 1219
308.15 K, 101 kPa, x2 = 0.2008 | 729.111 | –
308.15 K, 101 kPa, x2 = 0.2998 | 724.073 | –
308.15 K, 101 kPa, x2 = 0.3996 | 718.583 | –
308.15 K, 101 kPa, x2 = 0.5 | 712.522 | –
308.15 K, 101 kPa, x2 = 0.5002 | – | 1179.8
308.15 K, 101 kPa, x2 = 0.6 | 705.898 | –
308.15 K, 101 kPa, x2 = 0.7005 | 698.575 | –
308.15 K, 101 kPa, x2 = 0.7995 | 690.497 | –
308.15 K, 101 kPa, x2 = 0.8486 | 686.148 | –
308.15 K, 101 kPa, x2 = 0.8988 | 681.426 | –
308.15 K, 101 kPa, x2 = 0.9498 | 676.348 | –
308.15 K, 15200 kPa, x2 = 0.8496 | – | 1227.4
308.15 K, 30390 kPa, x2 = 0.8496 | – | 1314.4
308.15 K, 45590 kPa, x2 = 0.8496 | – | 1390.8
308.15 K, 60790 kPa, x2 = 0.8496 | – | 1459.7
308.15 K, 75990 kPa, x2 = 0.8496 | – | 1522.3
308.15 K, 91180 kPa, x2 = 0.8496 | – | 1580.4
308.15 K, 101320 kPa, x2 = 0.8496 | – | 1617.2
313.08 K, 15200 kPa, x2 = 0.9391 | – | 1191.3
313.08 K, 30390 kPa, x2 = 0.9391 | – | 1281.8
313.08 K, 45590 kPa, x2 = 0.9391 | – | 1360.6
313.08 K, 60790 kPa, x2 = 0.9391 | – | 1431.4
313.08 K, 75990 kPa, x2 = 0.9391 | – | 1495.6
313.08 K, 91180 kPa, x2 = 0.9391 | – | 1554.5
313.08 K, 101320 kPa, x2 = 0.4999 | – | 1636.7
313.08 K, 101320 kPa, x2 = 0.9391 | – | 1592.1
313.09 K, 30390 kPa, x2 = 0.97 | – | 1278.1
313.09 K, 45590 kPa, x2 = 0.97 | – | 1357.5
313.09 K, 60790 kPa, x2 = 0.4999 | – | 1483.8
313.09 K, 60790 kPa, x2 = 0.97 | – | 1428.5
313.09 K, 75990 kPa, x2 = 0.4999 | – | 1544.2
313.09 K, 75990 kPa, x2 = 0.97 | – | 1493.1
313.09 K, 91180 kPa, x2 = 0.4999 | – | 1601.2
313.09 K, 91180 kPa, x2 = 0.97 | – | 1552.3
313.09 K, 101320 kPa, x2 = 0.97 | – | 1589.9
313.1 K, 101 kPa, x2 = 0 | – | 1221
313.1 K, 101 kPa, x2 = 0.6 | – | 1144.4
313.1 K, 101 kPa, x2 = 0.8995 | – | 1088.5
313.1 K, 15200 kPa, x2 = 0.4999 | – | 1261.2
313.1 K, 15200 kPa, x2 = 0.97 | – | 1186.9
313.1 K, 30390 kPa, x2 = 0.4999 | – | 1344.1
313.1 K, 45590 kPa, x2 = 0.4999 | – | 1417.6
313.1 K, 60790 kPa, x2 = 0.7007 | – | 1462.1
313.1 K, 91180 kPa, x2 = 0.7007 | – | 1581.9
313.1 K, 101320 kPa, x2 = 0.1014 | – | 1665
313.11 K, 101 kPa, x2 = 0.3002 | – | 1187.6
313.11 K, 101 kPa, x2 = 0.3996 | – | 1174.4
313.11 K, 101 kPa, x2 = 0.7002 | – | 1127.3
313.11 K, 15200 kPa, x2 = 0.1014 | – | 1304
313.11 K, 15200 kPa, x2 = 0.3007 | – | 1282.9
313.11 K, 15200 kPa, x2 = 0.7007 | – | 1232.2
313.11 K, 30390 kPa, x2 = 0.1014 | – | 1382.7
313.11 K, 30390 kPa, x2 = 0.3007 | – | 1363.6
313.11 K, 30390 kPa, x2 = 0.5003 | – | 1344.2
313.11 K, 30390 kPa, x2 = 0.7007 | – | 1318.2
313.11 K, 45590 kPa, x2 = 0.1014 | – | 1453
313.11 K, 45590 kPa, x2 = 0.5003 | – | 1417.5
313.11 K, 45590 kPa, x2 = 0.7007 | – | 1393.8
313.11 K, 60790 kPa, x2 = 0.1014 | – | 1516.7
313.11 K, 60790 kPa, x2 = 0.5003 | – | 1483.9
